The subject of data set [1] is rats with severe Sugen-hypoxia-induced pulmonary hypertension. In words: Right ventricular systolic pressure (RVSP) after inhaled aerosol in Sugen-hypoxia pulmonary hypertension rats. The class given is in vivo, Sprague Dawley rats. On the procedure:
Stock SNOAC was prepared by reacting an appropriate amount of sodium nitrite and NAC in water just before use. The pH was adjusted to 7.0 with alkaline solution and then transferred to an Aeroneb Nebulizer (Kent Scientific). Severe PH was induced in Sprague Dawley rats by subcutaneous injection of vascular endothelial growth factor receptor antagonist Sugen 5416 followed by exposure to hypoxia (10% O2) for 3 weeks and normoxia for 4 weeks. Right ventricular systolic pressure (RVSP) was measured invasively in a closed-chest, spontaneously breathing rat model as an indicator of pulmonary arterial pressure. Rats were anesthetized with 1.5% isoflurane in air with a flow rate of 2 L/min. A blood pressure catheter was inserted into the right ventricle through the jugular vein, and baseline RVSP was measured. After the pressure stabilized, the aerosolized drug was introduced into the isoflurane line for 5 minutes.

Data set [2] has as its system normotensive rats. In words: Femoral mean arterial pressure after sublingual administration in normotensive rats. The class given is in vivo. To be noted: 0.2, 0.4 or 0.8 mg nitrite/kg with 10 mg NAC.
Method: Normotensive rats were anesthetized with isoflurane. The femoral artery was catheterized with a Micro-Tip Catheter Transducer (AD Instruments, Houston, TX) for monitoring of blood pressure. Once the baseline blood pressure was stabilized, at approximately 30 minutes, rats were treated sublingually with 50 μL of SNOAC generated by reacting 0.2 mg, 0.4 mg, or 0.8 mg nitrite/kg body weight with a fixed concentration of 10 mg NAC (FIG. 5). Control rats were treated with nitrite or NAC alone. The mean arterial pressure (MAP) was continually monitored.
A short description of data set [3]: Plasma and organ RSNOs after oral gavage of nitrite in neutral NAC. The class given is in vivo, rats. To be noted: single agent alone, nitrite 1.5 mg/kg, NAC 50 mg/kg. How it is done: […] BP was measured by femoral intra-arterial catheterization. Chronic studies were carried out in an L-NAME (eNOS inhibitor) induced hypertensive mouse model. Mice were randomized into five groups 1) control, 2) control L-NAME (0.1 g/L), 3) L-NAME+nitrite (20 mg/L), 4) L-NAME+nitrite (10 mg/L)+NAC (0.5 g/L), 5) L-NAME+nitrite (20 mg/L)+NAC 0.5 g/L) in drinking water for 2 months. Plasma S-nitrosothiols blood pressure (tail cuff method), arterial stiffness (Doppler method) were determined.

Data set [4] has as its system normotensive rats. The experiment in a line: Mean arterial pressure after oral gavage in normotensive rats. The class given is in vivo. To be noted: 0.5 mL.
Method: The mean arterial pressure (MAP) was continually monitored.
The MAP in rats was measured as described for sublingual administration. After baseline blood pressure was measured, 0.5 mL of nitrite alone, NAC alone, or the nitrite−NAC mixture was administered by gavage.
Another data set concerns eNOS^-/- mice. The experiment in a line: Tail-cuff MAP in eNOS-/- hypertensive mice, drinking water. It is filed as in vivo. To be noted: nitrite 50 mg/L, NAC 500 mg/L in drinking water for 2 months, versus eNOS-/- control.
The test system of data set [5] is mice with L-NAME-induced systemic hypertension. The experiment in a line: L-NAME-induced systemic hypertension in mice, drinking water. The class given is in vivo. To be noted: L-NAME-treated mice, NAC 0.5 g/L or nitrite 20 mg/L alone, 2 months. How it is done: L-NAME (N-nitro-L-arginine methyl ester) is an inhibitor of eNOS enzyme activity. Administering L-NAME in the drinking water of animals induces systemic hypertension by decreasing NO synthesis in blood vessels. In this study, mice were fed L-NAME alone (0.1 g/L) or L-NAME+NAC (0.5 g/L), L-NAME+nitrite (20 mg/L), or L-NAME+NAC with one of two nitrite doses (i.e., 10 mg/L or 20 mg/L) in drinking water for 2 months. Mean arterial blood pressure was measured by the tail-cuff method (Kent Scientific, Torrington, CT).
Acute doses of nitrite (0.1 to 1 mg/kg B. wt.) or NAC (10 to 50 mg/kg B. wt.) alone or in combination were administered sublingually or by oral gavage to anesthetized Wistar rats and blood collected at varying time points for measurement of total plasma SNOs by chemiluminescence method. BP was measured by femoral intra-arterial catheterization. Chronic studies were carried out in an L-NAME (eNOS inhibitor) induced hypertensive mouse model. Mice were randomized into five groups 1) control, 2) control L-NAME (0.1 g/L), 3) L-NAME+nitrite (20 mg/L), 4) L-NAME+nitrite (10 mg/L)+NAC (0.5 g/L), 5) L-NAME+nitrite (20 mg/L)+NAC 0.5 g/L) in drinking water for 2 months. Plasma S-nitrosothiols blood pressure (tail cuff method), arterial stiffness (Doppler method) were determined.

In data set [6] the test system is Spontaneously Hypertensive Rats (SHR). In words: Tail-cuff MAP in SHR and WKY rats, drinking water. It is filed as in vivo. To be noted: NAC 1.2 g/L, nitrite 60 mg/L in drinking water, end of 3 months, versus SHR control. On the procedure:
SHR rats are a well-established model used to study essential hypertension. Normotensive Wistar Kyoto rats (WKY) were used as a control group. Rats were fed with NAC (1.2 g/L), nitrite (60 mg/L), or a combination of the two in drinking water for 3 months. Mean arterial blood pressure was measured by the tail-cuff method once each month.

In data set [7] the test system is angiotension-2—induced acute PH. The experiment in a line: Angiotensin-2-induced acute pulmonary hypertension in control rats. The class given is in vivo. To be noted: inhalation.
Data set [8] can be described thus: RSNO decomposition in water monitored by spectra. The class given is physicochemical. To be noted: over 15 hours; from 15 mM sodium nitrite and 60 mM N-acetylcysteine in water. On the procedure: FIG. 11 is a graphical representation of generation and decomposition of S-nitroso-N-acetylcysteine (RSNO). In the left panel, RSNO generation is show when 15 mM sodium nitrite is reacted with 60 mM N-acetylcysteine (RSH) in water. All nitrite is converted instantly to RSNO. In the right panel, RSNO decomposition is monitored by recording spectra at 1.5 hour intervals over 15 hours. Approximately 50% of the RSNO was decomposed over the 15 hours.
Nitrite is converted to […] by reacting with RSH in water. RSNOs have potent vasodilatory, anti-inflammatory, and antiplatelet activities. As shown by the comparison of generation of RSNO in FIG. 11, left panel, with degradation in FIG. 11, right panel, the instability of RSNO after preparation is a major hindrance to use them as NO donors to restore the NO bio-availability that decrease with aging and pathophysiological conditions of cardiovascular diseases. Therefore, RSNOs have proven easy to prepare, but not typically stable after preparation.

Data set [9] is described as follows: Plasma S-nitrosothiols and nitrite after sublingual SNOAC in rats. The class given is in vivo. On the procedure:
Because the chemicals cannot be placed in the buccal cavity of experimental animals, SNOAC was prepared in a test tube just before use and then placed in the sublingual space. Normotensive rats were anesthetized and the femoral artery was cannulated to collect blood. Stock SNOAC at 30 μmoles/mL was prepared by reacting sodium nitrite with NAC at the molar ratio of 1:2 in water just before use. It is believed that all of the nitrite is converted to SNOAC under these conditions. After baseline blood samples were collected in heparinized tubes, approximately 50 μL of SNOAC solution (0.4 mg nitrite and 1.87 mg NAC/kg body weight) was placed under the tongue of anesthetized rats. Blood was collected at 10-minute intervals. The plasma was separated, and nitrite and total S-nitrosothiols in plasma were determined. […] There was no change in plasma nitrite levels.
In this study, the sublingual and buccal cavity medication route of SNOAC generation and administration for acute dosing was first examined. A dose of NAC and sodium nitrite with 25 μL of water was placed under the tongue of mice or rats. Specifically, a dose of 0.1 mg of nitrite and 10 mg of NAC was placed under the tongue of the subject, blood was collected varying time points, and total S-nitrosothiols (SNO) were measured by a chemiluminescence method. […]

A short description of data set [10]: Total S-nitrosothiols in blood after sublingual nitrite and NAC in mice. It is filed as in vivo. To be noted: 0.1 mg nitrite and 10 mg NAC. On the procedure: FIG. 14 is a graphical representation of the transfer of the SNOAC that is generated in the sublingual space to blood circulation in mice. The concentration of total S-nitrosothiols at 1, 30 min., and 60 min. was determined after mice were sublingually administered 0.1 mg nitrite and 10 mg NAC in 50 μL of water, generating SNOAC.
In this study, the sublingual and buccal cavity medication route of SNOAC generation and administration for acute dosing was first examined. A dose of NAC and sodium nitrite with 25 μL of water was placed under the tongue of mice or rats. Specifically, a dose of 0.1 mg of nitrite and 10 mg of NAC was placed under the tongue of the subject, blood was collected varying time points, and total S-nitrosothiols (SNO) were measured by a chemiluminescence method. […] As shown in FIG. 14 for mice and FIG. 4 for rats, SNOAC is generated in the buccal cavity and absorbed into circulation.

For a further data set, the system named is cardiac proteins. In words: SNO-RAC proteomics of rat heart tissue. The class given is in vivo, rats. To be noted: single oral gavage dose, hearts collected after 1 hour. On the procedure: FIG. 12 is a graphical representation of proteomics analysis of rat heart tissue. A single dose of nitrite and NAC at neutral pH were administered by oral gavage to rats. Rats were sacrificed after 1 hour and the hearts were collected. Total RSNO sites were identified using the a SNO-RAC (resin assisted capture) protocol. Proteomics was performed using liquid chromatography-tandem mass spectrometry (LC-MS/MS) analysis.

Method for eNOS^-/- mice: 15-week-old wild-type (WT) and eNOS^-/- mice were divided into 5 groups. (1) WT control, (2) eNOS^-/- control, (3) eNOS^-/-+nitrite, (4) eNOS^-/-+NAC, and (5) eNOS^-/-+nitrite+NAC. NAC was dissolved in the drinking water, and pH was adjusted to 7.0 to prevent initial nitrite reaction with NAC. The mice were given pharmacological doses of nitrite (50 mg/L) and NAC (500 mg/L) individually or in combination for 2 months.

Consider `CC(=O)N[C@@H](CS)C(=O)O` [NAC, N-acetylcysteine], for which, in data set [1] (hypertensive rats), the “effect on RVSP of inhaled precursor molecules alone” value was “no effect”. In addition, in the data set with normotensive rats [2], the “mean arterial pressure (MAP)” value is listed as “no change”. Moreover, the “increase in plasma RSNOs” value in data set [3] was “no change”. For the same molecule, the MAP entry with normotensive rats [4] was “neither nitrite nor NAC alone altered the blood pressure”; with eNOS^-/- mice it was “no significant change”; in [5], “no significant change”; in data set [6], “modestly decreased”.
`CC(=O)N[C@@H](CSN=O)C(=O)O` [SNOAC, S-nitroso-N-acetylcysteine]: the “RVSP change in control animals” value in data set [1] (control animals, baseline RVSP 30 mmHg) is recorded as “did not change significantly”. Moreover, in data set [1] (hypertensive rats), the “RVSP after another dose of aerosolized drug after 40 minutes” value is “sustained decrease in RVSP that was longer than after the initial dose”; the “RVSP course after cessation of inhalation” value is listed as “slowly increased over the following 40 minutes, while still remaining lower than the baseline value”; the “time the RVSP decrease was sustained at the same level after cessation of drug” value was found to be 5 min. In data set [1] (hypertensive rats, baseline RVSP 125 mmHg, inhalation for 5 minutes), the “RVSP after inhalation of aerosolized drug” value is listed as 96 mmHg. Moreover, the “angiotensin-2-induced acute PH” value in data set [7] is reported as “significantly decreased”. In addition, the RSNO decomposed result in data set [8] is reported as “Approximately 50%”. Moreover, the life span result in the data set “SNOAC life span” was “about 30 min”. Further, the plasma nitrite levels result in data set [9] (after sublingual SNOAC) is “no change”. Moreover, in data set [9] (rats, sublingual), the “total plasma S-nitrosothiols (SNO) over time” value is “increased with increasing the time”. The “total S-nitrosothiols (SNO) over time” value in [10] is given as “increased with increasing the time”. Moreover, the “S-nitrosylation of cardiac proteins” value with cardiac proteins was “increased with increasing the dose of RSNO”.
On to `O=NO` [nitrite, sodium nitrite], for which the “effect on PH at higher doses” value in data set [1] (even at higher doses) is given as “No effect”. The “effect on RVSP of inhaled precursor molecules alone” value in data set [1] (hypertensive rats) is recorded as “no effect”. In the data set with normotensive rats [2], the “mean arterial pressure (MAP)” value is “no change”. Further, the MAP result with normotensive rats [4] was “neither nitrite nor NAC alone altered the blood pressure”; in the data set on eNOS^-/- mice it was “no significant change”; in [5], “no significant change”; in data set [6] it was “no effect”.
With nitric oxide [NO gas], in [1] (hypertensive rats), the “RVSP course after cessation of inhalation” value is reported as “rapidly bounced back to baseline after cessation”. The “RVSP during inhalation of NO gas” value in [1] (hypertensive rats, 30 ppm inhaled for 5 minutes) is given as “rapid decrease in RVSP”.

(Values after US20240382443A1, “GENERATION OF S-NITROSOACETYLCYSTEINE” (The UAB Research Foundation, priority 2023, published 2024).)
